ChEMBL document CHEMBL1201862, “PubChem BioAssay data set” (2004)
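Test compounds were applied to cells in 96-well plates for 48 hours at 5 doses. The concentration for 50% growth inhibition is given as GI50.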 The source made the active and inactive calls. Cut-off read from the data, not from the text of the source: active = GI50 up to about 1.1 µM and inactive = higher.

Columns and labels:
Test in all cases: DTP human tumour cell line panel, 48 h
[1] = test system: DMS-114
[2] = test system: CAKI-1
[3] = test system: HCC 2998
[4] = test system: SNB-75
[5] = test system: SR
[6] = test system: ACHN
[7] = test system: TK-10
[8] = test system: M14
[9] = test system: M19-MEL
[10] = test system: SNB-78
[11] = test system: RPMI-8226
[12] = test system: DMS-273
[13] = test system: NCI/ADR-RES
[14] = test system: A498
[15] = test system: T47D
[16] = test system: Hs-578T
[17] = test system: PC-3
[18] = test system: MCF7
[19] = test system: 786-0
[20] = test system: XF498

Measured: GI50

O=C1c2ccccc2N(O)C1(c1ccccc1)C1CCCC=C1N1CCOCC1 (stereo unspecified)
inactive: [1] 50.1 µM | [2] > 100 µM | [3] > 100 µM | [4] 18.4 µM | [5] 28.4 µM | [6] > 100 µM | [7] > 100 µM | [8] > 100 µM | [9] > 100 µM | [10] > 100 µM | [11] 17.1 µM | [12] > 100 µM

CN(C)C(=O)NCCN1CCCCCc2ccccc21
inactive: [2] > 100 µM | [13] > 100 µM | [3] > 100 µM | [5] > 100 µM | [6] > 100 µM | [14] > 100 µM | [15] > 100 µM | [7] > 100 µM | [8] 46.3 µM | [16] > 100 µM | [17] > 100 µM | [18] > 100 µM | [11] > 100 µM

CC(=O)OCc1c(C)c2ccccc2n1C(C)=O
inactive: [1] 22.6 µM | [2] > 100 µM | [3] 95.3 µM | [4] 82.6 µM | [5] 36.1 µM | [6] 25.3 µM | [14] 38.3 µM | [7] 30.5 µM | [19] > 100 µM | [8] > 100 µM | [9] 53 µM | [20] 26.5 µM | [12] 25.1 µM

COC(=O)[C@H](Cc1ccccc1)NC(=O)N(CCNC(=O)OC(C)(C)C)c1ccccc1
inactive: [2] > 100 µM | [13] > 100 µM | [3] > 100 µM | [4] > 100 µM | [5] > 100 µM | [6] > 100 µM | [14] > 100 µM | [15] 51.4 µM | [19] > 100 µM | [8] > 100 µM | [16] > 100 µM | [17] > 100 µM | [18] > 100 µM | [11] > 100 µM

OC[C@H]1C[C@@H]2Cc3ccccc3N2N1
inactive: [2] > 100 µM | [13] > 100 µM | [3] > 100 µM | [4] > 100 µM | [5] > 100 µM | [6] > 100 µM | [14] > 100 µM | [15] > 100 µM | [7] > 100 µM | [19] > 100 µM | [8] > 100 µM | [16] > 100 µM | [17] > 100 µM

Cn1cc(-c2csc(-c3cn(C)c4ccccc34)n2)c2ccccc21
inactive: [2] 17.8 µM | [13] > 100 µM | [6] 21.6 µM | [14] 12.6 µM | [15] 2.81 µM | [7] 27 µM | [19] 17.2 µM | [8] 26.7 µM | [16] > 100 µM | [17] 21.9 µM | [18] 45.5 µM | [11] 20.7 µM

CN(CCO)Cc1ncccc1O
inactive: [2] > 100 µM | [13] > 100 µM | [4] > 100 µM | [5] > 100 µM | [6] > 100 µM | [14] > 100 µM | [15] > 100 µM | [7] > 100 µM | [8] > 100 µM | [16] > 100 µM | [17] > 100 µM | [18] > 100 µM | [11] > 100 µM

CCOC(=O)c1cc(Br)c(-c2cc(C)no2)[nH]1
inactive: [13] 30.4 µM | [4] 23.9 µM | [6] 28.8 µM | [14] 20.2 µM | [15] 28.1 µM | [7] 46.5 µM | [19] 43.7 µM | [8] 39.7 µM | [17] 28.4 µM | [11] 13.9 µM

O=C(/C=C/c1ccc(OCc2ccccc2)cc1)NCc1ccc(C(=O)NCc2ccccc2)cc1
inactive: [2] > 100 µM | [13] > 100 µM | [3] > 100 µM | [4] 36.6 µM | [5] > 100 µM | [6] > 100 µM | [14] > 100 µM | [15] > 100 µM | [7] > 100 µM | [19] > 100 µM | [8] > 100 µM | [16] > 100 µM | [17] > 100 µM | [18] > 100 µM | [11] > 100 µM

CCOC(=O)/C=C/n1c2ccccc2c(=O)c2ccccc21
inactive: [1] > 100 µM | [2] > 100 µM | [3] > 100 µM | [5] > 100 µM | [6] > 100 µM | [14] > 100 µM | [7] > 100 µM | [19] > 100 µM | [8] > 100 µM | [9] > 100 µM | [20] > 100 µM | [11] > 100 µM | [12] > 100 µM

CC1CC/C(=C\c2ccc(N(C)C)cc2)C2=C1C(c1ccc(N(C)C)cc1)NC(=S)N2 (stereo unspecified)
inactive: [2] > 100 µM | [13] > 100 µM | [4] > 100 µM | [6] > 100 µM | [14] > 100 µM | [15] > 100 µM | [7] > 100 µM | [19] > 100 µM | [8] > 100 µM | [16] > 100 µM | [17] 40.3 µM | [18] > 100 µM | [11] > 100 µM

COc1cccc(OCC(=N/NC(=O)c2ccncc2)/N=C/c2ccncc2)c1
inactive: [2] > 100 µM | [13] > 100 µM | [3] > 100 µM | [6] > 100 µM | [14] > 100 µM | [15] > 100 µM | [7] > 100 µM | [19] > 100 µM | [8] > 100 µM | [16] > 100 µM | [17] > 100 µM | [18] > 100 µM | [11] > 100 µM

Cn1c2ccc([N+](=O)[O-])cc2c(=O)n1Cc1ccccc1F
inactive: [2] 99.3 µM | [13] 23 µM | [3] 70.8 µM | [4] 20.9 µM | [5] 59.8 µM | [6] 53.3 µM | [14] 37.2 µM | [15] 19.4 µM | [7] 34 µM | [19] 49.5 µM | [8] 25.4 µM | [16] 25.8 µM | [17] 55.7 µM | [18] > 100 µM | [11] > 100 µM

COc1ccc(CCn2cncn2)cc1
inactive: [1] > 100 µM | [3] > 100 µM | [4] > 100 µM | [5] > 100 µM | [6] > 100 µM | [7] > 100 µM | [8] > 100 µM | [9] > 100 µM | [10] > 100 µM | [12] > 100 µM

CON(C)C(C#N)=C(C#N)C#N
inactive: [2] > 10 µM | [13] > 10 µM | [3] > 10 µM | [4] > 10 µM | [5] > 10 µM | [6] > 10 µM | [14] > 10 µM | [15] > 10 µM | [7] > 10 µM | [8] > 10 µM | [16] > 10 µM | [17] > 10 µM | [18] > 10 µM | [11] > 10 µM

O=C1C(Cl)N(c2ccccc2[N+](=O)[O-])C1c1c[nH]c2ccccc12 (stereo unspecified)
inactive: [1] > 100 µM | [4] 27.4 µM | [5] > 100 µM | [7] > 100 µM | [8] > 100 µM | [9] > 100 µM | [20] > 100 µM | [11] > 100 µM
